# Results as given in patent US9296693B2, “Acyl piperidine inhibitors of soluble epoxide hydrolase” (The Regents of the University of California, priority 2010, dated 2016).
# Where “and” joins values, the source holds several entries; their conditions need not be identical. Equal entries are not always repeated. Where two headings read alike, the source gives them in different places.
# Experiments:
# [1] = target: murine sEH (Mus musculus (Mouse), UniProt P34914); assay: fluorescent based IC50 assay (CMNPC substrate), recombinant murine sEH; type: biochemical; details: homogenous recombinant murine sEH 1 nM, CMNPC 5 μM, pH 7.0, 30° C., average of three replicates
# [2] = target: Human sEH (Homo sapiens (Human), UniProt P34913); assay: fluorescent based IC50 assay (CMNPC substrate), recombinant human sEH;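 further: enzyme preincubated with inhibitor for 5 min before adding substrate, in 25 mM Bis-Tris/HCl buffer supplemented with 0.1 mg/mL BSA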
# [3] = Pharmacokinetic screening of selected haloalkyl-phenyl ureas, blood profiles; type: in vivo; details: whole blood
# [4] = read-out: IC50 (nM) Human, homogenous recombinant human sEH 1 nM, CMNPC 5 μM, pH 7.0, 30° C., average of three replicates
# Human sEH, sequence (P34913 whole entry): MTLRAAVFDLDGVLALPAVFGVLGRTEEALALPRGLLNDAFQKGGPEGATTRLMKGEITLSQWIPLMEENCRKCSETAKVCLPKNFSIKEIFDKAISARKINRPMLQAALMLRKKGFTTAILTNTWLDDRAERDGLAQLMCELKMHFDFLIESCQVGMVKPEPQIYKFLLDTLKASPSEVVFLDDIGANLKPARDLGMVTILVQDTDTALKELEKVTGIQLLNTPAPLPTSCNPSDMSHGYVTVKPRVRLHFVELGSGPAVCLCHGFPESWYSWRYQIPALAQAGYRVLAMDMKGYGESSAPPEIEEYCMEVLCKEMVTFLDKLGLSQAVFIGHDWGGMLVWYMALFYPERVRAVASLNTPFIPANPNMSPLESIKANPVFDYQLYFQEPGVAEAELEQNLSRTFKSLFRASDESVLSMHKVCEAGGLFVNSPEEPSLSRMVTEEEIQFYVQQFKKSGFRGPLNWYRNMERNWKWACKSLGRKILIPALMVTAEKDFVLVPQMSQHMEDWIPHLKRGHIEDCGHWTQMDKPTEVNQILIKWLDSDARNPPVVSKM
# murine sEH, sequence (P34914 whole entry): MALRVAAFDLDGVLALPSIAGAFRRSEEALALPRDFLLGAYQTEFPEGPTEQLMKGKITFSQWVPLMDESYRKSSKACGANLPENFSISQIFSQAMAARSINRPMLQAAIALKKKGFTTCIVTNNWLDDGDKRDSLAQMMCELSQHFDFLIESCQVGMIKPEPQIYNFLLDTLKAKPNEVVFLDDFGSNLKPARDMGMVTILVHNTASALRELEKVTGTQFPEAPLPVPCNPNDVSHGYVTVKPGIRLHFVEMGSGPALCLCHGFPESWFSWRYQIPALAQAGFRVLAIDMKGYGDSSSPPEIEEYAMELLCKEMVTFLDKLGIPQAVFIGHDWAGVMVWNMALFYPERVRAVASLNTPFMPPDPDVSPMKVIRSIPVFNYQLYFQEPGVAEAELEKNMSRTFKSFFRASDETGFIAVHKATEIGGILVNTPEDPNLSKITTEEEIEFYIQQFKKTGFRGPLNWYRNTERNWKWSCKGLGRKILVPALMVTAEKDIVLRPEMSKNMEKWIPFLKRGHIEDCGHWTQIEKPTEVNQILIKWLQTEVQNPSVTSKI
Compound,IC50 [1],"IC50 [2, 4]",further results
"CCC(=O)N1CCC(NC(=O)NC23CC4CC(CC(C4)C2)C3)CC1 [Compound 2, 1-(1-Adamantyl)-3-(1-propionylpiperidin-4-yl)urea]",1.2 nM,2.8 nM,
"CCC(=O)N1CCC(NC(=O)NC2CCCCCC2)CC1 [Compound 3, 1-Cycloheptyl-3-(1-propionylpiperidin-4-yl)urea]",0.9 nM,3.9 nM,
"CCC(=O)N1CCC(NC(=O)NC2CCCCC2)CC1 [Compound 4, 1-Cyclohexyl-3-(1-propionylpiperidin-4-yl)urea]",3.5 nM,12 nM,
"CCCCCCCCNC(=O)NC1CCN(C(=O)CC)CC1 [Compound 5, 1-Octyl-3-(1-propionylpiperidin-4-yl)urea]",0.4 nM,3.2 nM,
"CCC(=O)N1CCC(NC(=O)Nc2ccccc2)CC1 [Compound 7, 1-Phenyl-3-(1-propionylpiperidin-4-yl)urea]",49 nM,130 nM,
"CCC(=O)N1CCC(NC(=O)Nc2ccc3ccccc3c2)CC1 [Compound 8, 1-(Naphthalen-2-yl)-3-(1-propionylpiperidin-4-yl)urea]",4.2 nM,3 nM,
"CCC(=O)N1CCC(NC(=O)Nc2ccccc2C)CC1 [Compound 10, 1-(1-Propionylpiperidin-4-yl)-3-o-tolylurea]",> 5000 nM and 5100 nM,1700 nM,
CCC(=O)N1CCC(NC(=O)Nc2cccc(C)c2)CC1 [Compound 11],8.7 nM,40 nM,
"CCC(=O)N1CCC(NC(=O)Nc2ccc(CC)cc2)CC1 [Compound 13, 1-(4-Ethylphenyl)-3-(1-propionylpiperidin-4-yl)urea]",1.3 nM,8.3 nM,
"CCC(=O)N1CCC(NC(=O)Nc2ccc(C(C)C)cc2)CC1 [Compound 14, 1-(4-Isopropylphenyl)-3-(1-propionylpiperidin-4-yl)urea]",3.3 nM,2.8 nM,
"CCC(=O)N1CCC(NC(=O)Nc2ccc(OC)cc2)CC1 [Compound 15, 1-(4-Methoxyphenyl)-3-(1-propionylpiperidin-4-yl)urea]",8.7 nM,87 nM,
"CCC(=O)N1CCC(NC(=O)Nc2ccc(Oc3ccccc3)cc2)CC1 [Compound 16, 1-(4-Phenoxyphenyl)-3-(1-propionylpiperidin-4-yl)urea]",0.4 nM,3.5 nM,
"CCC(=O)N1CCC(NC(=O)Nc2cc(OC)c(OC)c(OC)c2)CC1 [Compound 18, 1-(1-Propionylpiperidin-4-yl)-3-(3,4,5-trimethoxyphenyl)urea]",> 5000 nM and 25000 nM,> 5000 nM,
"CCC(=O)N1CCC(NC(=O)Nc2ccc(N3CCOCC3)cc2)CC1 [Compound 19, 1-(4-Morpholinophenyl)-3-(1-propionylpiperidin-4-yl)urea]",650 nM,2000 nM,
"CCC(=O)N1CCC(NC(=O)Nc2ccc([N+](=O)[O-])cc2)CC1 [Compound 20, 1-(4-Nitrophenyl)-3-(1-propionylpiperidin-4-yl)urea]",97 nM,,
"CCC(=O)N1CCC(NC(=O)Nc2ccc(C(=O)O)cc2)CC1 [Compound 22, 4-(3-(1-Propionylpiperidin-4-yl)ureido)benzoic acid]",1000 nM,330 nM,
"CCC(=O)N1CCC(NC(=O)Nc2ccc(O)cc2)CC1 [Compound 23, 1-(4-Hydroxyphenyl)-3-(1-propionylpiperidin-4-yl)urea]",1400 nM,,
"CCC(=O)N1CCC(NC(=O)Nc2ccc(Cl)cc2)CC1 [Compound 25, 1-(4-Chlorophenyl)-3-(1-propionylpiperidin-4-yl)urea]",23 nM,10 nM,
"CCC(=O)N1CCC(NC(=O)Nc2ccc(Br)cc2)CC1 [Compound 26, 1-(4-Bromophenyl)-3-(1-propionylpiperidin-4-yl)urea]",15 nM,3.6 nM,
"CCC(=O)N1CCC(NC(=O)Nc2ccc(I)cc2)CC1 [Compound 27, 1-(4-Iodophenyl)-3-(1-propionylpiperidin-4-yl)urea]",1.4 nM,7.2 nM,
"CCC(=O)N1CCC(NC(=O)Nc2cccc(F)c2)CC1 [Compound 28, 1-(3-Fluorophenyl)-3-(1-propionylpiperidin-4-yl)urea]",20 nM,39 nM,
"CCC(=O)N1CCC(NC(=O)Nc2ccccc2F)CC1 [Compound 29, 1-(2-Fluorophenyl)-3-(1-propionylpiperidin-4-yl)urea]",780 nM,300 nM,

Compound,IC50 [1],"IC50 [2, 4]",further results
"CCC(=O)N1CCC(NC(=O)Nc2cccc(Cl)c2)CC1 [Compound 30, 1-(3-Chlorophenyl)-3-(1-propionylpiperidin-4-yl)urea]",6.6 nM,21 nM,
"CCC(=O)N1CCC(NC(=O)Nc2ccccc2Cl)CC1 [Compound 31, 1-(2-Chlorophenyl)-3-(1-propionylpiperidin-4-yl)urea]",2900 nM,1100 nM,
"CCC(=O)N1CCC(NC(=O)Nc2ccc(Cl)c(Cl)c2)CC1 [Compound 32, 1-(3,4-Dichlorophenyl)-3-(1-propionylpiperidin-4-yl)urea]",0.6 nM,3.4 nM,
"CCC(=O)N1CCC(NC(=O)Nc2cc(Cl)cc(Cl)c2)CC1 [Compound 33, 1-(3,5-Dichlorophenyl)-3-(1-propionylpiperidin-4-yl)urea]",1 nM,0.4 nM,
"CCC(=O)N1CCC(NC(=O)Nc2c(Cl)cccc2Cl)CC1 [Compound 34, 1-(2,6-Dichlorophenyl)-3-(1-propionylpiperidin-4-yl)urea]",> 5000 nM and 38000 nM,> 50000 nM,IC50 [2]: > 5000 nM
"CCC(=O)N1CCC(NC(=O)Nc2ccc(Cl)c(C(F)(F)F)c2)CC1 [Compound 35, 1-(4-Chloro-3-(trifluoromethyl)phenyl)-3-(1-propionylpiperidin-4-yl)urea]",2.3 nM,4.1 nM,
"CCC(=O)N1CCC(NC(=O)Nc2ccc(C(F)(F)F)cc2)CC1 [Compound 36, 1-(1-Propionylpiperidin-4-yl)-3-(4-(trifluoromethyl)phenyl)urea]",6.5 nM,,
"CCC(=O)N1CCC(NC(=O)Nc2cccc(C(F)(F)F)c2)CC1 [Compound 37, 1-(1-Propionylpiperidin-4-yl)-3-(3-(trifluoromethyl)phenyl)urea]",8.8 nM,17 nM,
"CCC(=O)N1CCC(NC(=O)Nc2ccc(C(F)(C(F)(F)F)C(F)(F)F)cc2)CC1 [Compound 38, 1-(4-Perfluoroisopropylphenyl)-3-(1-propionylpiperidin-4-yl)urea]",0.7 nM,0.4 nM,
"CCC(=O)N1CCC(NC(=O)Nc2ccc(C(F)(C(F)(F)F)C(F)(F)F)cc2C)CC1 [Compound 39, 1-(2-Methyl-4-perfluoroisopropylphenyl)-3-(1-propionylpiperidin-4-yl)urea]",28 nM,17 nM,
"O=C(Nc1ccc(OC(F)(F)F)cc1)NC1CCN(C(=O)c2ccncc2)CC1 [Compound 47, 1-(1-Isonicotinoylpiperidin-4-yl)-3-(4-(trifluoromethoxy)phenyl)urea]",1.3 nM,0.7 nM,
"O=C(Nc1ccc(OC(F)(F)F)cc1)NC1CCN(C(=O)c2ccc(Cl)nc2)CC1 [Compound 48, 1-(1-(6-Chloronicotinoyl)piperidin-4-yl)-3-(4-(trifluoromethoxy)phenyl) urea]",0.7 nM,0.6 nM,
"O=C(Nc1ccc(OC(F)(F)F)cc1)NC1CCN(C(=O)Cc2ccccn2)CC1 [Compound 49, 1-(((Pyridin-2-yl)acetyl)piperidin-4-yl)-3-(4-(trifluoromethoxy)phenyl) urea]",5 nM,3.1 nM,
"CC(=O)N1CCN(CC(=O)N2CCC(NC(=O)Nc3ccc(OC(F)(F)F)cc3)CC2)CC1 [Compound 51, 1-(1-((4-Acetylpiperazin-1-yl)acetyl)piperidin-4-yl)-3-(4-(trifluoromethoxy)phenyl)urea]",1.2 nM,0.5 nM,
"O=C(Nc1ccc(OC(F)(F)F)cc1)NC1CCN(C(=O)C2CC2)CC1 [Compound 52, 1-(1-(Cyclopropanecarbonyl)piperidin-4-yl)-3-(4-(trifluoromethoxy)phenyl) urea]",0.4 nM,,
"O=C(Nc1ccc(OC(F)(F)F)cc1)NC1CCN(C(=O)C(F)(F)F)CC1 [Compound 53, 1-(1-(Trifluoroacetyl)piperidin-4-yl)-3-(4-(trifluoromethoxy)phenyl) urea]",0.4 nM,,
"CS(=O)(=O)N1CCC(NC(=O)Nc2ccc(OC(F)(F)F)cc2)CC1 [Compound 55, 1-(1-(Methylsulfonyl)piperidin-4-yl)-3-(4-(trifluoromethoxy)phenyl)urea]",2 nM,2.9 nM,
"CCS(=O)(=O)N1CCC(NC(=O)Nc2ccc(OC(F)(F)F)cc2)CC1 [Compound 56, 1-(1-(Ethylsulfonyl)piperidin-4-yl)-3-(4-(trifluoromethoxy)phenyl)urea]",0.7 nM,0.4 nM,
"O=C(Nc1ccc(OC(F)(F)F)cc1)NC1CCN(S(=O)(=O)c2ccccc2)CC1 [Compound 57, 1-(1-(Phenylsulfonyl)piperidin-4-yl)-3-(4-(trifluoromethoxy)phenyl)urea]",0.4 nM,1.8 nM,
"Cc1ccc(S(=O)(=O)N2CCC(NC(=O)Nc3ccc(OC(F)(F)F)cc3)CC2)cc1 [Compound 58, 1-(1-Tosylpiperidin-4-yl)-3-(4-(trifluoromethoxy)phenyl)urea]",0.4 nM,,
"O=C(Nc1ccc(C(F)(F)F)cc1)NC1CCN(C(=O)C2CC2)CC1 [Compound 61, 1-(1-cyclopropanecarbonylpiperidin-4-yl)-3-(4-(trifluoromethyl)phenyl)urea]",,,AUC [3]: 170 µM·h; Cmax [3]: 10.2 µM; Tmax [3]: 4 h; half-life [3]: 10.6 h
"CCC(C)C(=O)N1CCC(NC(=O)Nc2ccc(C(F)(F)F)cc2)CC1 (stereo not drawn) [Compound 64, 1-(1-(2-methylbutyryl)piperidin-4-yl)-3-(4-(trifluoromethyl)phenyl)urea]",,,AUC [3]: 3.9 µM·h; Cmax [3]: 4 µM; Tmax [3]: 4 h; half-life [3]: 2.5 h
